Laboratory results taken from US20180153859A1, “METHODS OF TREATING OR PREVENTING COGNITIVE IMPAIRMENT USING INDANE ACETIC ACID DERIVATIVES BASED ON APOE4 GENOTYPE” (T3D Therapeutics, Inc., priority 2016, published 2018).

Tested on: mild to moderate severity Alzheimer's patients
Assay: ADAS-cog11 cognitive test in Alzheimer's patients stratified by ApoE4 genotype (trial NCT02560753)
Format: in vivo, human
Conditions: for cognitive improvement (ADAS-cog11 score change): D1-D14 and D1-D21
Experimental: Table 8c compares the average ADAS-cog11 score of all subjects, treated at all doses of T3D-959 in trial NCT02560753 (ClinicalTrials.gov), stratified by ApoE4 genotype and compares those scores with the average score of the group of subjects dosed at 3 mg, 10 mg, and 30 mg/d. ADAS-cog11 score change from day 1 (pre-dosing) to day 14 (D1-D14, end of treatment) and from day 1 to day 21 (D1-D21, followup) are shown.
Shown in this table are ADAS-cog11 cognitive test score changes from before dosing on day 1 of treatment (D1) to end of drug treatment on Day 14 (D14) and at follow-up 7 days post-dosing on Day 21 (D21). Drug treatment of mild to moderate severity Alzheimer's patients (MMSE=14-26) with T3D-959 was for 14 days q.d. at 3 mg, 10 mg, 30 mg or 90 mg (n=number of subjects evaluable at each dose). The ADAS-cog11 test score changes at each dose were stratified by ApoE4 genotype [E4=one or two ApoE4 alleles, Non-E4=no ApoE4 alleles].
ADAS-cog score change from day 1 to day 14 (D1-D14) and from day 1 to day 21 (D1-D21) are shown.
Adult human subjects who were tested for the presence of the ApoE4 gene (one or two E4 alleles) and had Alzheimer's disease were tested with the compound of the invention ((1S)-5-{5-ethyl-2-(4-methoxyphenyl)-1,3-oxazol-4-yl]ethoxy}-2,3-dihydro-1H-inden-1-yl) acetic acid, sodium salt. Subjects either lacked ApoE4 alleles (non-E4) or had one or two ApoE4 alleles (E4).

Row | Structure (SMILES) | most effective / required daily dose for cognitive improvement (AD subjects with one or two ApoE4 alleles) | most effective daily dose for cognitive improvement (ApoE4 non-carrier AD subjects) | cognitive improvement (ADAS-cog11 score change) (ApoE4 non-carriers, 3 mg, 10 mg and 30 mg/d q.d. for 14 days) | cognitive improvement (ADAS-cog11 score change) (ApoE4 carriers (one or two ApoE4 alleles), 30 mg and 90 mg/d q.d. for 14 days) | cognitive improvement (ADAS-cog11 score change) (ApoE4 non-carriers, 3 mg, 10 mg and 30 mg/d q.d. for 14 days, acetic acid, sodium salt)
1 | CCc1oc(-c2ccc(OC)cc2)nc1CCOc1ccc2c(c1)CC[C@H]2CC(=O)[O-].[Na+] | ≥ 30 mg | 3 to 30 mg qd | showed improvement in cognition | – | –
2 | CCc1oc(-c2ccc(OC)cc2)nc1CCOc1ccc2c(c1)CC[C@H]2CC(=O)[O-].[Na+] [Example T3D-959] | – | – | – | improvement | greater cognitive improvement
